# Data published in patent US9650339B2, “Inhibitors of histone demethylases” (Gilead Sciences, Inc., priority 2013, dated 2017).
# pIC50: −log10 of the molar value.
# Key:
# [1] = target: T1, KDM4A (Homo sapiens, UniProt O75164); assay: Histone lysine demethylase immunofluorescence assay, U2OS cells transfected with KDM4A; format: cell-based; conditions: U2OS cells transfected with pCMVHA KDM4A; mark detected H3K9me3; 20 hours
# T1 construct: Full length; host or cells: U2OS
# T1 sequence (O75164 1-1064): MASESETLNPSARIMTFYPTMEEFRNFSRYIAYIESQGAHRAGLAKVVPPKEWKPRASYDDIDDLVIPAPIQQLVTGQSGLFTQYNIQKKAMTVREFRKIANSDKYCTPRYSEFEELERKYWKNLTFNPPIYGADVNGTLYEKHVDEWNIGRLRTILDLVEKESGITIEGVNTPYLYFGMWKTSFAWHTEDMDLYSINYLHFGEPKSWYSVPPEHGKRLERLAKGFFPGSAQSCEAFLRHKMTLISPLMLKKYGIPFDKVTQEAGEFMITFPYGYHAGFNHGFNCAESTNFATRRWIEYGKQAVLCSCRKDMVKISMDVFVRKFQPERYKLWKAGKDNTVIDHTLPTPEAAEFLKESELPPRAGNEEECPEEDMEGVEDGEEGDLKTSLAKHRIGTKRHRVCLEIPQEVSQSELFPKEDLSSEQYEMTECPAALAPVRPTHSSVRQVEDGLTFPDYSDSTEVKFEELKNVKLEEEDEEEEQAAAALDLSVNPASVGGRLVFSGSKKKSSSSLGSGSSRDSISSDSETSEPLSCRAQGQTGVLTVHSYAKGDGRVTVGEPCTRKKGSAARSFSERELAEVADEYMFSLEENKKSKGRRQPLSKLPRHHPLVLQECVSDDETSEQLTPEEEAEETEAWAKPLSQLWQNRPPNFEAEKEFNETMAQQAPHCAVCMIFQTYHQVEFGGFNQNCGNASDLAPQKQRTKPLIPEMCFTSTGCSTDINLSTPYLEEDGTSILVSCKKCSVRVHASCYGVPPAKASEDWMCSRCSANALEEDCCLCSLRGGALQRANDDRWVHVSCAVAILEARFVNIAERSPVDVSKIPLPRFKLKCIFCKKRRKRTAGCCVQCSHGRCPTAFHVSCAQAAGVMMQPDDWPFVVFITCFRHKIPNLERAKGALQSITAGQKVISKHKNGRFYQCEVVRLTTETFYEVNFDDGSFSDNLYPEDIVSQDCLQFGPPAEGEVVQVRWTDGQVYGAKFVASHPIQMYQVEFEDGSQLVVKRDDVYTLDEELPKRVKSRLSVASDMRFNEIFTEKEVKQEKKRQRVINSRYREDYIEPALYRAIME
# Procedure: U2OS cells were seeded 24 hours before transfection. Transfection was performed with Fugene HD transfection reagent as recommended by the manufacturer. 6 hours after transfection, the cells were harvested and seeded into multi well plates into media containing compound. The media used was DMEM containing 10% FBS and pen/strep. 20 hours after incubation of cells with compounds, the cells were washed in PBS, harvested by fixation with formaldehyde 4% aqueous solution, and washed in PBS. Subsequently, the cells were permeabilized in PBS with 0.2% Triton X-100 for. Blocking was performed in PBS with 0.2% Triton X-100 and 5% FBS. The cells were incubated with primary antibodies in blocking solution over night at 4° C. The primary antibodies used in the assays were HA.11 (Covance, MMS-101P) and the antibody detecting the mark specified in the table below. After incubation with primary antibodies, the cells were washed with PBS, incubated with secondary antibodies (Alexa fluor 594 goat anti rabbit IgG, Invitrogen, A11012; Alexa flour 488 donkey anti mouse IgG, Invitrogen, A21202) and Hoechst, (Sigma, 33342) in blocking solution, and washed again with PBS. Finally, PBS was added and high throughput imaging and analysis were performed by an IN Cell Analyzer 1000 (GE Healthcare). The robot software analyzed individual cells and divided these into HA+ (transfected cells) and HA− (non-transfected cells). The IC50 values were based on an average measure of the staining of the mark specified in the table below in the transfected cells.
# [2] = tested on: H3K4me3 mark; assay: Histone lysine demethylase immunofluorescence assay, non-transfected U2OS cells; format: cell-based; conditions: Homo sapiens, staining of the H3K4me3 mark, 20 hours incubation with compound
# Outline: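 Non-transfected U2OS cells incubated with compounds 20 h in DMEM/5% FBS. Fixed cells immunostained for H3K4me3 with Hoechst counterstain and imaged by high-throughput microscopy. IC50 based on average cellular H3K4me3 staining.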
smiles,measurement,setting,value
"COc1ccccc1CN1CCC(NC(=O)CNCc2cc(CNC3CC3)ccn2)CC1 [Compound 20, 2-[({4-[(cyclopropylamino)-methyl]pyridin-2-yl}methyl)amino]-N-{1-[(2-methoxyphenyl)methyl]-piperidin-4-yl}acetamide]",pIC50,[1],< 5.60
same,pIC50,[2],5.60 to 6.60
"CCN(CC)CCCCNCc1cc(C2NCCCN2C)ccn1 (stereo not shown) [Compound 68, [4-(diethylamino)butyl]({[4-(1-methyl-1,3-diazinan-2-yl)pyridin-2-yl]methyl})amine]",pIC50,[2],> 6.60
"O=Cc1ccnc(CNCCCCN(Cc2ccccc2)C2CC2)c1 [Compound 109, 2-[({4-[benzyl-(cyclopropyl)amino]-butyl}amino)methyl]-pyridine-4-carbaldehyde]",pIC50,[1],< 5.60
